Columns and labels:
C. albicans JCM1542 [1] = assay: iHOPE antimicrobial microdilution assay (turbidity OD600); assay type: cell-based, Candida albicans
A. fumigatus Af293 = assay: iHOPE antimicrobial microdilution assay; assay type: cell-based, Aspergillus fumigatus; conditions: Aspergillus fumigatus, AF293, read-out: IC50 against A. fumigatus Af293
C. albicans JCM1542 [2] = assay: Reactive oxygen species (ROS) measurement (DCFH-DA); assay type: cell-based, Candida albicans; conditions: 60 min, dose range 0.010–0.3 µM
Method: (§1) Intracellular ATP measurement
(§2) Intracellular ATP levels were examined using the protocol outlined in a previous study (27). C. glabrata JCM3761 was precultured overnight in YPD medium [1% yeast extract (Thermo Fisher Scientific), 2% peptone (NIHON PHARMACEUTICAL, Osaka, Japan), and 2% D-glucose]. A 200-µL inoculum suspension containing 0.1% of a 0.5 McFarland standard suspension was prepared and seeded into a 96-well plate. […] The luminescence was recorded using a Varioskan LUX Multimode Microplate Reader.
(§3) Reactive oxygen species (ROS) measurement
(§4) ROS levels were examined using the method described in a previous paper (27). The overnight preculture of C. albicans JCM1542 was washed and resuspended in 5 mL of PBS buffer. 2’,7’- dichlorodihydrofluorescein diacetate (DCFH-DA; Cayman Chemical, MI, US) was added at a concentration of 50 µM. After incubation at 28 °C for 30 min, the fungi were washed three times with PBS buffer to remove the residual extracellular dye and seeded at a density of 1×10^6 cells/well in 50 µL of PBS, followed by the sample addition. After 60 min of incubation, the fluorescence intensity (excitation wavelength/emission wavelength = 485/535 nm) was measured using Varioskan LUX Multimode Microplate Reader.

C. glabrata JCM3761 [3] = assay: iHOPE antimicrobial microdilution assay (turbidity OD600); assay type: cell-based, Candida glabrata; conditions: Nakaseomyces glabratus, JCM3761, 24 h, read-out: IC50 against C. glabrata JCM3761
E. coli HO-141 = assay: iHOPE antimicrobial microdilution assay; assay type: cell-based, Escherichia coli; conditions: Escherichia coli, HO141, read-out: IC50 against E. coli HO-141
C. auris Ci6684 = assay: iHOPE antimicrobial microdilution assay (turbidity OD600); assay type: cell-based, Candida auris; conditions: Candidozyma auris, CI6684, 24 h, read-out: IC50 against C. auris Ci6684
C. glabrata JCM3761 [4] = assay: Intracellular ATP measurement (BacTiter-Glo); assay type: cell-based, Candida glabrata; conditions: C. glabrata JCM3761, 6 h, dose range 0.010–0.3 µM
Method: as §1, §2, §3, §4

S. aureus 209P = assay: iHOPE antimicrobial microdilution assay; assay type: cell-based, Staphylococcus aureus; conditions: Staphylococcus aureus, 209P, read-out: IC50 against S. aureus 209P
C. auris VPCI673 = assay: iHOPE antimicrobial microdilution assay (turbidity OD600); assay type: cell-based, Candida auris; conditions: Candidozyma auris, VPCI673, 24 h, read-out: IC50 against C. auris VPCI673
C. tropicalis JCM1541 = assay: as above; assay type: cell-based; conditions: Candida tropicalis, JCM1541, 24 h, read-out: IC50 against C. tropicalis JCM1541
C. albicans JCM1542 [5] = assay type: cell-based, Candida albicans
[6] = iHOPE in vitro cytotoxicity assessment (Cell Count Reagent SF); assay type: cell-based, human; conditions: human; SD in parentheses, n = 3; read-out: IC50 against HL-60 RCB0041 (cytotoxicity)
Method: (§5) The method for in vitro cytotoxicity assessment using Cell Count Reagent SF (Nacalai Tesque) has been described previously ([15]). […] Test compounds were added to the culture medium, and then the plates were incubated at 28°C for 24 h.

HL-60 RCB0041 = assay: as above; assay type: cell-based, human; conditions: up to / at 30 µM
Method: as §5

P. oryzae Kita-1 = assay: microbe, parasite or virus in culture; assay type: cell-based, Pyricularia oryzae; conditions: Pyricularia oryzae, KITA1, read-out: IC50 against P. oryzae Kita-1
C. albicans IFO1601 = system: C. albicans IFO1601; set-up: method as in earlier work; conditions: cited from earlier work

In the case of [C-]#[N+][C@H](C)CC(=O)NC[C@@H]1CC[C@H](NC(=O)C[C@@H](C)[N+]#[C-])C(O)O1 (stereo partly shown) [SF2768], the “effect of excessive amounts of other metal ions (iron, zinc, manganese, magnesium) on the activity” value (C. albicans JCM1542 [1]; 0.03 µM SF2768, metal chlorides, 24 h) is reported as “did not affect the activity”, the IC50 (C. albicans JCM1542 [1]; Candida albicans, JCM1542, 24 h, read-out: IC50 against C. albicans JCM1542) is reported as 0.01 µM and the selectivity index (C. albicans JCM1542 [1]; HL-60 cytotoxicity versus C. albicans IC50) is reported as > 3,000. The IC50 (A. fumigatus Af293) was 0.12 µM, the “intracellular level of reactive oxygen species (ROS)” value (C. albicans JCM1542 [2]) was “did not alter the amount” and the IC50 (C. glabrata JCM3761 [3]) was 0.0054 µM. For the same compound, the IC50 (E. coli HO-141) was > 30 µM, the IC50 (C. auris Ci6684) was 0.02 µM and the “intracellular level of ATP” value (C. glabrata JCM3761 [4]) was “did not alter the amount”. It also gave an IC50 (S. aureus 209P) of 0.5 µM, an IC50 (C. auris VPCI673) of 0.049 µM and an IC50 (C. tropicalis JCM1541) of 0.013 µM. The “effect on farnesol-induced yeast growth of C. albicans” value (C. albicans JCM1542 [5]) was “clearly inhibited this effect”, the “morphological change induced in C. albicans” value (C. albicans JCM1542 [5]) was “few branching or lateral yeasts were observed, and only minimal hyphal growth was observed” and the “concentration at which the hyphal form of C. albicans was predominant” value (C. albicans JCM1542 [5]; C. albicans JCM1542) was ≥ 0.030 µM. For the same compound, the IC50 [6] was > 30 µM, the “cytotoxicity to HL-60 cells (in words)” value (HL-60 RCB0041) was “without any cytotoxicity” and the IC50 (P. oryzae Kita-1) was > 30 µM. For the same compound, the “zone of inhibition against C. albicans IFO1601” value (C. albicans IFO1601) was “faint zone of inhibition”.
